ChEMBL document CHEMBL5724914, “Linking interpersonal differences in gut microbiota composition and drug biotransformation activity” (2024)

What was measured:
[1] = human gut metagenome, 24 h, 2 µM
[2] = (§1) The drug is tested on WLS-098 corresponding to human gut metagenome with ENA study accession number: PRJEB37062 and ENA sample accession number: ERS12561754 for biotransformation under anaerobic condition. The drug concentrations were measured over 9 timepoints collected between 0 and 24 hours of incubation by liquid-chromatography-coupled mass spectrometry (LC–MS); details: 2 µM
[3] = human gut metagenome, 24 h, 2 µM; remark: listed apart in the source
[4] = human gut metagenome, 24 h, 2 µM; remark: listed apart in the source
[5] = as §1, with “Z-003” for “WLS-098”, “pig” for “human”, “ERS12561803” for “ERS12561754”; details: 2 µM
[6] = as §1, with “Z-009” for “WLS-098”, “pig” for “human”, “ERS12561809” for “ERS12561754”; details: 2 µM
[7] = as §1, with “Z-002” for “WLS-098”, “rabbit” for “human”, “ERS12561802” for “ERS12561754”; details: 2 µM
[8] = human gut metagenome, 24 h, 2 µM; remark: listed apart in the source
[9] = human gut metagenome, 24 h, 2 µM; remark: listed apart in the source
[10] = as §1, with “Z-019” for “WLS-098”, “rat” for “human”, “ERS12561818” for “ERS12561754”; details: 2 µM
[11] = as §1, with “WLS-006” for “WLS-098”, “ERS12561741” for “ERS12561754”; details: 2 µM
[12] = human gut metagenome, 24 h, 2 µM; remark: listed apart in the source
[13] = human gut metagenome, 24 h, 2 µM; remark: listed apart in the source
[14] = human gut metagenome, 24 h, 2 µM; remark: listed apart in the source
[15] = human gut metagenome, 24 h, 2 µM; remark: listed apart in the source
[16] = as §1, with “Z-014” for “WLS-098”, “rat” for “human”, “ERS12561814” for “ERS12561754”; details: 2 µM
[17] = human gut metagenome, 24 h, 2 µM; remark: listed apart in the source
[18] = human gut metagenome, 24 h, 2 µM; remark: listed apart in the source
[19] = human gut metagenome, 24 h, 2 µM; remark: listed apart in the source
[20] = human gut metagenome, 24 h, 2 µM; remark: listed apart in the source
Note: call rule not given here.

| Compound | Bacterial Biotransformation [1] | Bacterial Biotransformation [2] | Bacterial Biotransformation [3] | Bacterial Biotransformation [4] | Bacterial Biotransformation [5] | Bacterial Biotransformation [6] | Bacterial Biotransformation [7] | Bacterial Biotransformation [8] | Bacterial Biotransformation [9] | Bacterial Biotransformation [10] | Bacterial Biotransformation [11] | Bacterial Biotransformation [12] | Bacterial Biotransformation [13] | Bacterial Biotransformation [14] | Bacterial Biotransformation [15] | Bacterial Biotransformation [16] | Bacterial Biotransformation [17] | Bacterial Biotransformation [18] | Bacterial Biotransformation [19] | Bacterial Biotransformation [20] |
| --- | --- | --- | --- | --- | --- | --- | --- | --- | --- | --- | --- | --- | --- | --- | --- | --- | --- | --- | --- | --- |
| CC(C)(C(=O)O)c1ccc(C(O)CCCN2CCC(C(O)(c3ccccc3)c3ccccc3)CC2)cc1 (stereo not given) [FEXOFENADINE] | Compound NOT metabolized | Compound NOT metabolized | Compound NOT metabolized | Compound NOT metabolized | Compound NOT metabolized | Compound NOT metabolized | Compound metabolized | Compound NOT metabolized | Compound NOT metabolized | Compound NOT metabolized | Compound NOT metabolized | Compound NOT metabolized | Compound NOT metabolized | Compound NOT metabolized | Compound NOT metabolized | Compound NOT metabolized | Compound NOT metabolized | Compound NOT metabolized | Compound NOT metabolized | Compound NOT metabolized |
| COc1ccc(CCN(C)CCCC(C#N)(c2ccc(OC)c(OC)c2)C(C)C)cc1OC (stereo not given) | Compound metabolized | Compound metabolized | Compound NOT metabolized | Compound metabolized | Compound metabolized | Compound metabolized | Compound metabolized | Compound metabolized | Compound NOT metabolized | Compound NOT metabolized | Compound NOT metabolized | Compound metabolized | Compound NOT metabolized | Compound metabolized | Compound metabolized | Compound NOT metabolized | Compound metabolized | Compound metabolized | Compound metabolized | Compound metabolized |
| CC(O)(CS(=O)(=O)c1ccc(F)cc1)C(=O)Nc1ccc(C#N)c(C(F)(F)F)c1 (stereo not given) [BICALUTAMIDE] | Compound NOT metabolized | Compound NOT metabolized | Compound NOT metabolized | Compound NOT metabolized | Compound NOT metabolized | Compound NOT metabolized | Compound NOT metabolized | Compound NOT metabolized | Compound NOT metabolized | Compound NOT metabolized | Compound NOT metabolized | Compound NOT metabolized | Compound NOT metabolized | Compound NOT metabolized | Compound NOT metabolized | Compound NOT metabolized | Compound NOT metabolized | Compound NOT metabolized | Compound NOT metabolized | Compound NOT metabolized |
| COc1ccc2c(c1OC)C(=O)O[C@@H]2[C@H]1c2c(cc3c(c2OC)OCO3)CCN1C [NOSCAPINE] | Compound metabolized | Compound metabolized | Compound NOT metabolized | Compound metabolized | Compound metabolized | Compound metabolized | Compound metabolized | Compound metabolized | Compound metabolized | Compound NOT metabolized | Compound metabolized | Compound NOT metabolized | Compound NOT metabolized | Compound metabolized | Compound NOT metabolized | Compound metabolized | Compound metabolized | Compound NOT metabolized | Compound metabolized | Compound NOT metabolized |
